# Measured values: patent US6569872B1, “Use of neurokinin receptor antagonists to treat androgen-dependent diseases” (Schering Corporation, priority 2001, dated 2003)
# Tests used:
# serum testosterone = assay: Reduction of LHRH-stimulated serum testosterone in mice; format: in vivo, male nude mice
# Procedure: The effects of Compounds A, B, C, D, E and F on serum testosterone were tested in mice given intramuscular (i.m.) luteinizing hormone releasing hormone (LHRH) to drive testicular androgen biosynthesis.
# Male nude mice (8 weeks old, 5 mice/group) were dosed orally with 0, 5, 15, 45, 90, 150 or 300 mg/kg of Compound A in 20% hydroxypropyl β-cyclodextran (HPβCD). After 1 hour, animals were given an i.m. injection of LHRH (250 ng/kg in 50 μl Sterile Water) into the biceps femoris muscle to drive testosterone production. After an additional hour, the animals were anesthetized with ketamine/xylazine, bled by cardiac puncture, and serum testosterone levels were determined by radioimmunoassay.
# The effects of 90 mg/kg of Compounds A, B, C, D, E and F on LHRH-stimulated serum testosterone levels were compared in male nude mice.
# [1] = tested on: serum LH, T, androstenedione, and DHEA; assay: Reversibility of the effects on hormones, 7 days dosing and 14-day postdose period; format: in vivo, dogs
# Procedure: The following investigative study was conducted to determine whether the changes observed after 1 week of Compound A administration were reversible after a 14-day postdose period. The first day of dosing was Day 1.
# There were eight dogs in Group 1, who received placebo (sterile water) and twelve dogs in Group 2, who received Compound A. Dogs were scheduled to be dosed for 7 days; however, one dog died shortly after receiving the sixth dose of compound A. All eight dogs in Group 1 had hormonal evaluations on Day 7; 4 of these dogs were necropsied on Day 8. The remaining four dogs in Group 1 had hormonal evaluations on Day 21 (14 days postdose), and were necropsied on Day 22. In Group 2, eleven dogs had hormonal evaluations on Day 7, and five were necropsied on Day 8. The remaining six dogs in Group 2 had hormonal evaluations on Day 21 (14 days postdose) and were necropsied on Day 22.
# There were typically one to three spikes of LH and T within the sampling period. In many dogs the LH spikes preceded the T spikes by 30 to 60 minutes. Androstenedione and DHEA concentrations tended to rise and fall with those of T, although in some dogs there were many values below the limit of quantitation.
# In dogs receiving Compound A at Day 7, serum LH, T, androstenedione, and DHEA concentrations were often very low. Group mean values for LH, T, androstenedione, and DHEA were 14.7, 1.5, 0.37, and 0.88 ng/ml for dogs receiving sterile water, while dogs receiving Compound A had group mean values of 2.4, 0.05, 0.01 and 0.03 ng/ml, respectively. […] It should also be noted that on Day 7 almost all T, androstenedione, and DHEA samples were below the limit of detection despite using sensitive assays.
# [2] = format: in vivo
# Procedure: Compound A was administered as an aqueous solution in sterile water by daily oral gavage to adult healthy beagle dogs.
# The dogs received 28 consecutive daily doses at dose levels of 0, 15, 30 or 60 mg/kg. […] Organ weights of male and female reproductive tract tissues were 33-86% lower than that of concurrent controls, and occurred in all dose groups. […] In the epididymides, vacuolation (mild) of epithelium was also present in the mid- and high-dose males. […] This was characterized in the ovaries by a lack of antral follicles, and most follicles that were present were small and contained only small numbers of granulosa cells. Compared to control dogs, the uterine bodies and horns had less myometrial tissue present. Uterine epithelium from dogs receiving Compound A with immature uteri had very little cytoplasm present. The changes in the female reproductive system may be related to atrophy rather than immaturity.
# [3] = tested on: serum concentrations of testosterone (T) and luteinizing hormone (LH); assay: Serum LH and testosterone in male dogs dosed for 1, 3 or 7 days; format: in vivo, beagle dogs
# Procedure: To further characterize reproductive system effects, adult male healthy beagle dogs were administered sterile water (placebo) or Compound A orally by gavage for 1, 3 or 7 days (Day 0=first day of dosing). Serum was collected from blood for determination of serum concentrations of testosterone (T) and luteinizing hormone (LH).
# There were typically one to three spikes of LH and T within the sampling period. In many dogs the LH spikes preceded the T spikes by 20 to 40 minutes.
# In dogs receiving Compound A, serum LH and T concentrations were generally near the lower baseline values at the first time point evaluated (1 hour after the first doses), and then typically declined throughout the 4-hour evaluation. This trend toward decreased LH and T concentrations from 60 to 300 minutes postdose was statistically significant (p<0.0001). LH and T remained at low concentrations for the remainder of the study. […] The decline in LH to very low (mean values of 1.5 to 3.8 ng/ml for Compound A versus 10.2 to 14.8 ng/ml for Controls) concentration was more rapid than that seen with T. In dogs receiving Compound A, serum LH and T concentrations at Day 2 were generally lower than those at Day 0. Serum LH concentrations on Day 6 were similar to those on Day 2, while serum T concentrations on Day 6 were generally lower than those on Day 2. By Days 2 and 6, some LH and many T samples were below the limit of detection despite using sensitive assays.
# [4] = tested on: Shionogi mouse mammary carcinoma tumors; assay: Androgen-dependent tumor growth, Shionogi carcinoma in nude mice; format: in vivo; settings: end of 15 days, relative to vehicle control
# Procedure: (§1) Following the observation of reduction of serum testosterone in mice, the effects of Compound A on androgen-dependent tumor growth were tested. […] Shionogi mouse mammary carcinoma tumors were grown in nude mice as an androgen-dependent model, and DU-145 human prostate carcinoma tumors were grown in nude mice as an androgen-independent model.
# In the Shionogi experiment, male nu/nu mice (8-9 weeks old, 10 mice/group) were inoculated with Shionogi carcinoma cells and tumors were grown to approximately 150 mm^3 before initiation of Compound A administration. Mice were treated twice daily, i.p. with 20% HPβCD vehicle control, 5 mg/kg Compound A or 15 mg/kg Compound A. Tumor growth was inhibited over 15 days of Compound A treatment relative to vehicle control animals. At the end of 15 days, mean tumor volumes were inhibited by 41% and 69% in the 5 mg/kg and 15 mg/kg groups, respectively.
# [5] = tested on: serum LH, T, DHEA, and androstenedione; assay: Lower-dose 7-day study in male beagle dogs; format: in vivo
# Procedure: Another study was conducted to evaluate the effects of lower doses (0.1, 0.5, 2.5, 12.5 mg/kg) of Compound A administered to male beagle dogs for 7 days.
# [6] = tested on: DU-145 human prostate carcinoma tumors; assay: Androgen-independent tumor growth, DU-145 in nude mice; format: in vivo; settings: 15, 45 or 90 mg/kg twice daily i.p., over 30 days
# Procedure: as §1
# In the DU-145 experiment, male nu/nu mice (9-10 weeks old, 10 mice/group) were inoculated with DU-145 prostate carcinoma cells and tumors were grown to approximately 65 mm^3 before initiation of Compound A administration. Mice were treated twice daily, i.p. with 20% HPβCD vehicle control, 15 mg/kg, 45 mg/kg or 90 mg/kg of Compound A. As expected, tumor growth was not inhibited over 30 days in any of the Compound A groups.
# [7] = males, all dose groups, 28 days oral
# [8] = 7 days, 0.1, 0.5, 2.5, 12.5 mg/kg
# [9] = 7 days, doses of 2.5 and 12.5 mg/kg
smiles,measurement,setting,value
CO/N=C(\CN(C)C(=O)c1cc(Cl)cc(Cl)c1)C(CCN1CCC(N2CCCC(CC(N)=O)C2=O)CC1)c1ccc(Cl)c(Cl)c1 (stereo not shown) [C],reduction of LHRH-stimulated serum testosterone (statistical significance),"serum testosterone; 90 mg/kg, male nude mice",statistically significant (p<0.01) reduction
CNC(=O)CC1CCCN(C2CCN(CCC(/C(CN(C)C(=O)c3cc(Cl)cc(Cl)c3)=N/OC)c3ccc(Cl)c(Cl)c3)CC2)C1=O (stereo not shown) [Compound A],group mean serum androstenedione,"[1]; Day 7, sterile water group 0.37 ng/ml",0.01 ng/mL
same,group mean serum DHEA,"[1]; Day 7, sterile water group 0.88 ng/ml",0.03 ng/mL
same,group mean serum T,"[1]; Day 7, sterile water group 1.5 ng/ml",0.05 ng/mL
same,group mean serum LH,"[1]; Day 7, sterile water group 14.7 ng/ml",2.4 ng/mL
same,serum DHEA group mean and peak mean concentrations versus concurrent controls,[1]; Day 21 (14 days postdose),not significantly different
same,serum LH group mean and peak mean concentrations versus concurrent controls,[1]; Day 21 (14 days postdose),not significantly different
same,serum T group mean and peak mean concentrations versus concurrent controls,[1]; Day 21 (14 days postdose),not significantly different
same,serum androstenedione group mean and peak mean concentrations versus concurrent controls,[1]; Day 21 (14 days postdose),not significantly different
same,mortality,"[1]; twelve dogs in the group, shortly after the sixth dose",one dog died
same,"organ weights of male and female reproductive tract tissues, lower than concurrent controls","[2]; beagle dogs, oral gavage, 28 daily doses, all dose groups (15, 30, 60 mg/kg)",33-86%
same,appearance of ovaries and uteri,"[2]; females, at least one dog in each dose group, 28 days oral",appeared immature
same,aspermia/hypospermia in the epididymides,"[2]; males, 28 days oral",observed in all dose groups
same,atrophy of epididymides (microscopic grade),[2]; [7],minimal to moderate
same,atrophy of prostate gland (microscopic grade),[2]; [7],mild to moderate
same,atrophy of seminiferous tubules in the testes (microscopic grade),[2]; [7],severe
same,vacuolation of epithelium in the epididymides (grade),"[2]; mid- and high-dose males, 28 days oral",mild
same,group mean serum T concentration compared to concurrent controls,"[3]; Day 0, 2 and 6, p≦0.0001",significant lower
same,group mean serum LH concentration compared to concurrent controls,"[3]; Day 0, 2 and 6, p≦0.0005",significant lower
same,pulsatile patterns of serum LH and T,"[3]; male beagle dogs, oral gavage",lacked the normal pulsatile patterns
same,inhibition of mean tumor volume,[4]; 5 mg/kg twice daily i.p.,41%
same,inhibition of mean tumor volume,[4]; 15 mg/kg twice daily i.p.,69%
same,inhibition of serum testosterone,"serum testosterone; 15 mg/kg oral in 20% HPβCD, LHRH i.m. after 1 hour, bled after an additional hour",62%
same,reduction of LHRH-stimulated serum testosterone (statistical significance),"serum testosterone; 90 mg/kg, male nude mice",statistically significant (p<0.01) reduction
same,maximum inhibition of serum testosterone,"serum testosterone; 300 mg/kg oral in 20% HPβCD, LHRH i.m. after 1 hour, bled after an additional hour",83%
same,histopathologic changes in testes and epididymides,[5]; [8],"degeneration and cellular debris in the seminiferous tubules, interstitial cell vacuolation in the testes, epithelial vacuolation, atrophy, apoptosis, hypospermia, and interstitial edema of the epididymides"
same,histopathologic changes of the prostate gland,[5]; [8],Epithelial apoptosis and atrophy
same,decrease in serum DHEA (dehydroepiandrosterone),[5]; [9],clearly observed
same,decrease in serum LH,[5]; [9],clearly observed
same,decrease in serum T,[5]; [9],clearly observed
same,decrease in serum androstenedione,[5]; [9],clearly observed
same,tumor growth inhibition,[6],not inhibited
CN(C/C(=N\O)C(CCN1CCC(N2CCCC(CC(N)=O)C2=O)CC1)c1ccc(Cl)c(Cl)c1)C(=O)c1cc(Cl)cc(Cl)c1 (stereo not shown) [B],reduction of LHRH-stimulated serum testosterone (statistical significance),"serum testosterone; 90 mg/kg, male nude mice",statistically significant (p<0.01) reduction
CNC(=O)C[C@H]1CCCN(C2CCN(CC[C@@H](/C(CN(C)C(=O)c3cc(Cl)cc(Cl)c3)=N/O)c3ccc(Cl)c(Cl)c3)CC2)C1=O [F],reduction of LHRH-stimulated serum testosterone (statistical significance),"serum testosterone; 90 mg/kg, male nude mice",statistically significant (p<0.01) reduction
CNC(=O)CC1CCCN(C2CCN(CCC(/C(CNC(=O)c3cc(Cl)cc(Cl)c3)=N/OC)c3ccc(Cl)c(Cl)c3)CC2)C1=O (stereo not shown) [Compound D],reduction of LHRH-stimulated serum testosterone (statistical significance),"serum testosterone; 90 mg/kg, male nude mice",failed to reach statistical significance
same,reduction of mean serum testosterone,"serum testosterone; 90 mg/kg, male nude mice, LHRH-stimulated",19%
CO/N=C(\CNC(=O)c1cc(Cl)cc(Cl)c1)C(CCN1CCC(N2CCC[C@H](CC(N)=O)C2=O)CC1)c1ccc(Cl)c(Cl)c1 (stereo partly shown) [E],reduction of LHRH-stimulated serum testosterone (statistical significance),"serum testosterone; 90 mg/kg, male nude mice",statistically significant (p<0.01) reduction
